The results in this text go back to PubChem BioAssay (NCI).

Experiment in all cases: NCI anticancer screen, dose series, 48 h
Test [1] deals with UACC-62 melanoma.
Test [2] has as its system COLO 205 colon.
Test [3] concerns SF-295 CNS.
Test [4] has as its system T-47D breast.
Test [5] has as its system MALME-3M melanoma.
Test [6] deals with SR leukemia.
Test [7] deals with PC-3 prostate.
Test [8] concerns 786-0 renal.

Values joined by “and” are separate entries in the source; they are usually repeats but may differ in a detail not shown here. Equal values may be shown once.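 Each compound was tested at five concentrations against cells in 96-well plates for 48 hours. The concentration for 50% growth inhibition is given as GI50. TGI: concentration producing complete growth inhibition.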 Some results are limits rather than exact numbers.

As to `COC(=O)CCc1c[nH]c2ccc(N(CCCl)CCCl)cc12`, the GI50 in test [1] was 1.72 µM; in test [2], 3.5 µM; in test [3], 0.826 µM; in test [4] it was 1.16 µM; in test [5], 5.95 µM; in test [6] it was 0.416 µM. Further, the GI50 is 8.65 µM in test [7] and 0.856 µM in test [8]. Besides, the TGI in test [1] is 16.6 µM; in test [2], 19.4 µM; in test [3] it was over 58.8 µM; in test [4] it was 16.4 µM; in test [5], 30.1 µM; in test [6], over 100 µM. Besides, the TGI in test [7] was over 73.4 µM; in test [8], over 20.7 µM.

`CC(C)(C)C(=O)c1c(C(F)(F)F)n([O-])c2ccccc2[n+]1=O`: the GI50 in test [1] is 1.33 µM; in test [2], 0.616 µM; in test [3] it was 0.294 µM; in test [4], 0.597 µM; in test [5], 0.973 µM; in test [7] it was 0.817 µM. In addition, in test [8], the GI50 is 0.729 µM. Moreover, the TGI in test [1] turned out to be 2.66 µM; in test [2], 1.73 µM; in test [3], 1.27 µM; in test [4] it was 1.78 µM; in test [5], 2.34 µM; in test [6], 0.209 µM. The figures for the TGI in test [7] and in test [8] were 2.38 µM and 2.46 µM, respectively.

As to `OCc1ccc(-c2ccc(-c3ccc(CO)o3)[se]2)o1`, the GI50 in test [1] is 8.72 µM; in test [2] it was 60.2 µM; in test [3], over 40.8 µM; in test [4] it was 15.7 µM; in test [5], over 100 µM; in test [6], over 69.2 µM. The GI50 in test [7] is 69.1 µM; in test [8], over 100 µM. In addition, the TGI in test [1], in test [2], in test [3], in test [4], in test [5] and in test [6] was over 100 µM each time. The TGI in test [7] and in test [8] was over 100 µM throughout.

For the compound `COc1ccc(S(=O)(=O)N2CC(C)(C)CN(S(=O)(=O)c3ccc(OC)cc3)C2C(=O)NO)cc1`, the GI50 was over 19.2 µM in test [1]; over 20 µM in test [2]; over 20 µM in test [3]; over 20 µM in test [4]; 5.93 µM in test [5]; 13.6 µM in test [6]. Also, the GI50 in test [7] and in test [8] was over 20 µM each time. Further, the TGI in test [1], in test [2], in test [3], in test [4], in test [5] and in test [6] was over 20 µM in each case. In addition, the TGI in test [7] and in test [8] was over 20 µM in each case.

As for `C#CCOc1cccc(-c2ncnc3cc(NC(=O)CCl)ccc23)c1`, the GI50 in test [1] is 0.481 µM; in test [2] it was 0.0976 µM; in test [3] it was 2.44 µM; in test [4], 1.69 µM; in test [5], 1.28 µM; in test [6], 0.0363 µM. The GI50 in test [7] was 0.813 µM; in test [8] it was 0.208 µM. Also, the TGI in test [1] was 3.07 µM; in test [2] it was 2.77 µM; in test [3] it was 9.25 µM; in test [4], 5.02 µM; in test [5] it was 3.59 µM; in test [6], over 100 µM. Further, the TGI in test [7] came to 4.84 µM; in test [8], 2.26 µM.

With `CC(C)=CCc1c(OC(=O)c2c(C)cc(O)cc2O)cc(CO)c(CO)c1O`, the TGI in test [1] stood at 29.6 µM; in test [2], 33.8 µM; in test [3], 37.5 µM; in test [4], 23.8 µM; in test [5], 45.4 µM; in test [6], 94.5 µM. In addition, the values for the TGI in test [7] and in test [8] were 36.8 µM and over 100 µM, respectively.

On to `FC(F)c1nc2ccccc2n1-c1nc(N2CCOCC2)nc(N2CCOCC2)n1`, for which the GI50 in test [1] was 0.0752 µM and 0.233 µM; in test [2] it was 0.277 µM and 0.507 µM; in test [3], 0.237 µM and 0.196 µM; in test [4], 0.0502 µM and 0.11 µM; in test [5], 0.178 µM and 0.16 µM; in test [6] it was 0.686 µM and 0.578 µM. The GI50 was 0.0722 µM and 0.113 µM in test [7]; 0.146 µM and 0.223 µM in test [8]. The TGI is 0.86 µM and 1.94 µM in test [1]; 1.63 µM and 1.78 µM in test [3]; 0.388 µM and 0.565 µM in test [4]; 1.65 µM and 0.919 µM in test [5]; over 100 µM in test [6]; 1.43 µM and 2.94 µM in test [8].

As for `COC(=O)c1c2c(c[n+]([O-])c1C)C(=O)C=CC2=O`, the GI50 in test [1] was 1.81 µM; in test [2], 1.85 µM; in test [3], 3.43 µM; in test [4] it was 2.33 µM; in test [5] it was 1.25 µM; in test [6] it was 2.72 µM. For the same compound, the GI50 in test [7] was 4.34 µM; in test [8], 2.56 µM. The TGI in test [1] is 3.4 µM; in test [2] it was 3.93 µM; in test [3], 13.2 µM; in test [4], 6.85 µM; in test [5], 2.51 µM; in test [6], over 100 µM. Moreover, the TGI in test [7] turned out to be 55.1 µM; in test [8] it was 6.39 µM.

For `CC(C(=O)c1ccccc1)C(c1ccccc1)N1CCOCC1` (stereo not drawn), the TGI in test [1], in test [2], in test [3], in test [4], in test [5] and in test [6] was over 100 µM in each case. The TGI in test [7] and in test [8] was over 100 µM each time.

Turning to `CC(C)CCC(=O)c1ccoc1`, the TGI in test [1], in test [2], in test [3], in test [4], in test [5] and in test [6] was over 100 µM each time. Further, the TGI in test [7] and in test [8] was over 100 µM in each case.
